# Measurements published in paper PMC7854510 (Molecular microbiology, 2020).
# Biological target: T1, rLacR (UA159) (Streptococcus mutans, UniProt P26422)
# T1 sequence (P26422 1-251): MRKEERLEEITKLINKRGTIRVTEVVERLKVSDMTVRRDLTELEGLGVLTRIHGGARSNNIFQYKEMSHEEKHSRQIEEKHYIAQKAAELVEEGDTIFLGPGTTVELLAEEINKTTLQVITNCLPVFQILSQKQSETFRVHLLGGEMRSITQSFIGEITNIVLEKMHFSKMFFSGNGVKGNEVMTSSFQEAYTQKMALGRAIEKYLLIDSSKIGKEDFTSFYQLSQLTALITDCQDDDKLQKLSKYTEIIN
# Assay: DNase I footprinting by capillary electrophoresis
# Assay type: binding
# Settings: 5 mM; fluorescent UA159 lacA probe
smiles,measurement,value
O=P(O)(O)OC[C@H]1OC(O)[C@H](O)[C@@H](O)[C@H]1O (stereo partly shown) [Gal-6-P],DNase I footprinting by capillary electrophoresis (DFACE),addition of Gal-6-P resulted in the appearance of a DNase I hyper-sensitive site
